SMILES strings stand for the structures.

We go through 4 compounds from article PMC7718255, “Structural characterization and in vitro lipid binding studies of non-specific lipid transfer protein 1 (nsLTP1) from fennel (Foeniculum vulgare) seeds” (Scientific Reports, 2020).

The experiment addresses T1, fennel nsLTP1 (Anethum foeniculum, UniProt C0HLP9).
T1 construct: native mature protein purified from seeds (gel filtration, RP-HPLC); 91 residues, 9433 Da, monomer
T1 sequence (C0HLP9 1-91): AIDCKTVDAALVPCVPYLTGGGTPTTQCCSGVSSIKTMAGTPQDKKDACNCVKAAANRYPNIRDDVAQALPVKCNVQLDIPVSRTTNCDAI
In words: TNS fluorescence displacement. Format: binding. The following applies: 3.5 µM TNS, 4 µM nsLTP1, fatty acid 5-20 µM; 175 mM mannitol, 0.5 mM K2SO4, 0.5 mM CaCl2, 5 mM MES pH 7.0, 25 °C; competitive with TNS.
For the compound `CCCCCCCCCCCCCCCC(=O)O` [palmitic acid], the “% of the control fluorescence (nsLTP1-TNS complex)” value is recorded as 40–69%. Then `CCCCCCCCCCCCCCCCCC(=O)O` [stearic acid], with 21–59%. Then `CC/C=C\C/C=C\C/C=C\CCCCCCCC(=O)O` [linolenic acid, all-cis-9,12,15-octadecatrienoic acid], with 7–59%; and `CCCCC/C=C\C/C=C\CCCCCCCC(=O)O` [linoleic acid, cis, cis-9,12-Octadecadienoic acid], with 4–40%.
